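Following 48 hours of exposure in 96-well plates, responses at five concentrations were used to interpolate endpoints linearly. TGI is the concentration that stops growth completely.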

Among the test systems are HOP-92 NSCLC; 786-0 renal; BT-549 breast; OVCAR-4 ovarian.
Common to all, as to assay: inhibition of tumour cell growth, NCI panel, 48 h

As for `CCOC(=O)c1c(SCCN2CCCC2)n(-c2ccccc2)c(=S)n(-c2ccccc2)c1=O`, the TGI in the assay on HOP-92 NSCLC is 4.48 µM; in the assay with 786-0 renal, 2.89 µM; in the assay on BT-549 breast it was 13.9 µM; with OVCAR-4 ovarian it was 27 µM.
Taken in the same sequence, the figures for `CCOC(=O)C1CC(O)C(=O)N1C` (stereo not drawn) were greater than 100 µM, greater than 100 µM, greater than 100 µM and greater than 100 µM.
With `Cc1ccc(C(=O)Nc2ccc(CP(=O)(O)O)cc2)cc1NC(=O)c1cccc(NC(=O)Nc2cccc(C(=O)Nc3cc(C(=O)Nc4ccc(CP(=O)(O)O)cc4)ccc3C)c2)c1`, the TGI in the assay with 786-0 renal, in the assay with BT-549 breast and in the assay with OVCAR-4 ovarian was greater than 100 µM each time.
`Cc1cc(C)c2c(n1)S(=O)(=O)N(CCCN1CCN(c3cccc(C(F)(F)F)c3)CC1)/C(=C(\O)c1ccc(Cl)cc1)C2=O`: the TGI with HOP-92 NSCLC stood at 8.35 µM; in the assay with 786-0 renal, 15.4 µM; with BT-549 breast, 19.3 µM; in the assay on OVCAR-4 ovarian it was 15.1 µM.
As for `N#Cc1c2c(c(Nc3ccc(F)cc3)n3c1nc1ccccc13)CCC2`, the TGI in the assay with HOP-92 NSCLC stood at 20.5 µM; in the assay on 786-0 renal it was 3.25 µM; with BT-549 breast, 17.8 µM; in the assay on OVCAR-4 ovarian, 28.4 µM.
As for `CC1CC(C#N)=C2NCCCCN2C1=O` (stereo not drawn), the TGI in the assay on 786-0 renal, with BT-549 breast and with OVCAR-4 ovarian was greater than 100 µM in each case.
As to `COC(c1ccc(C(C)(C)C)cc1)(c1ccc(C(C)(C)C)cc1)c1cc(C(O)(c2cc(C(OC)(c3ccc(C(C)(C)C)cc3)c3ccc(C(C)(C)C)cc3)c(C)cc2C)c2cc(C(OC)(c3ccc(C(C)(C)C)cc3)c3ccc(C(C)(C)C)cc3)c(C)cc2C)c(C)cc1C`, the TGI in the assay on HOP-92 NSCLC, in the assay with BT-549 breast and with OVCAR-4 ovarian was greater than 100 µM throughout.
In the case of `O=C1N[C@@H]2c3c(csc3Br)C(=O)[C@@H]2O1`, the results for the TGI in the assay on HOP-92 NSCLC, in the assay with 786-0 renal and with BT-549 breast were 59.3 µM, greater than 100 µM and greater than 100 µM, respectively.
On to `Cc1cccc(C[C@@]2(SCc3ccccc3)C(C)(C)[C@@H]3CC[C@@]2(C)C3)n1`, for which the TGI in the assay on HOP-92 NSCLC came to 27.6 µM; in the assay with 786-0 renal, 35.5 µM; in the assay on BT-549 breast, 42.6 µM.
On to `CC1=CC=CC(C)(C)CC1(O[Si](C)(C)C)C(F)(F)F` (stereo not drawn), for which the TGI in the assay with HOP-92 NSCLC, with 786-0 renal, in the assay on BT-549 breast and in the assay with OVCAR-4 ovarian was greater than 100 µM each time.
In the case of `CCOP(=O)(OCC)/C(F)=C/c1ccccc1`, the TGI in the assay on HOP-92 NSCLC, in the assay on 786-0 renal, in the assay on BT-549 breast and in the assay on OVCAR-4 ovarian was greater than 100 µM in each case.
Consider `CC1=CC(=O)N(n2c(C)n[nH]c2=O)C1=O`, for which the TGI with HOP-92 NSCLC, in the assay on 786-0 renal, with BT-549 breast and in the assay with OVCAR-4 ovarian was greater than 100 µM each time.
`O=C(O[C@H](/C=C/c1ccccc1)P1(=O)N(Cc2ccccc2)[C@@H]2CCCC[C@H]2N1Cc1ccccc1)c1ccccc1`: the TGI is 6.72 µM with HOP-92 NSCLC, 42 µM with 786-0 renal, greater than 100 µM in the assay with BT-549 breast and 6.19 µM in the assay on OVCAR-4 ovarian.
For the compound `COc1ccc2c(c1)C(=O)c1ccccc1C2`, the TGI with HOP-92 NSCLC, in the assay on 786-0 renal, in the assay with BT-549 breast and in the assay on OVCAR-4 ovarian was greater than 100 µM in each case.
Turning to `O=C(O)c1ccc(NS(=O)(=O)Cc2ccccc2)cc1`, the TGI in the assay with HOP-92 NSCLC, with 786-0 renal, with BT-549 breast and in the assay with OVCAR-4 ovarian was greater than 100 µM throughout.
In the case of `C/C(=N/NC(=S)Nc1cccc(C)c1)c1ccccn1`, the TGI was 6.12 µM in the assay on HOP-92 NSCLC, 4.26 µM with 786-0 renal, 12.2 µM in the assay with BT-549 breast and 8.93 µM in the assay with OVCAR-4 ovarian.
With `C(=Nc1ccc(-c2nc3ccccc3s2)cc1)c1ccco1`, the TGI in the assay with HOP-92 NSCLC, in the assay on 786-0 renal, with BT-549 breast and in the assay on OVCAR-4 ovarian was greater than 100 µM each time.
On to `CN(O)C(=O)Cc1ccc(OCc2cccc(Cl)c2)cc1`, for which the TGI in the assay with HOP-92 NSCLC, with 786-0 renal, in the assay with BT-549 breast and in the assay with OVCAR-4 ovarian was greater than 100 µM each time.
`CCN(CC)CCCn1c(=O)c2cccnc2n2c3c(=O)n(C)c(=O)n(C)c3nc12`: the TGI with HOP-92 NSCLC, in the assay with 786-0 renal, with BT-549 breast and with OVCAR-4 ovarian was greater than 100 µM throughout.
For `O=C1/C(=C/c2ccc(Br)s2)NC(=S)N1CN1CCOCC1`, the TGI in the assay on 786-0 renal, in the assay with BT-549 breast and in the assay with OVCAR-4 ovarian was greater than 100 µM throughout.
`C[C@]12CC/C(=N\O)C=C1CC[C@@H]1[C@@H]2CC[C@]2(C)C(=N/O)/C(=C/c3cccnc3)C[C@@H]12`: the TGI with HOP-92 NSCLC was 63.5 µM; in the assay with 786-0 renal it was greater than 100 µM; in the assay with BT-549 breast, 54.3 µM; in the assay with OVCAR-4 ovarian, 65.3 µM.
Taken in the same sequence, the figures for `c1ccc2c(c1)CCCN1CCc3ccccc3C21` (stereo not drawn) were greater than 100 µM, greater than 100 µM, greater than 100 µM and greater than 100 µM.
Consider `NCCCC(N)C(=O)O` (stereo not drawn), for which the TGI with HOP-92 NSCLC, in the assay on 786-0 renal, in the assay on BT-549 breast and in the assay with OVCAR-4 ovarian was greater than 100 µM each time.
As to `CCOC(=O)C1C(=O)CC(O)(c2ccccc2)C(C(=O)OCC)C1c1ccc(OC)cc1` (stereo not drawn), the TGI with HOP-92 NSCLC was greater than 82 µM; in the assay with 786-0 renal, greater than 59.2 µM; in the assay with BT-549 breast, greater than 100 µM; in the assay on OVCAR-4 ovarian it was greater than 100 µM.
With `N#CC(C#N)=C1CCCS(=O)(=O)c2ccccc21`, the TGI in the assay with HOP-92 NSCLC, in the assay with 786-0 renal, with BT-549 breast and in the assay on OVCAR-4 ovarian was greater than 100 µM each time.
On to `CSc1c(C(=O)Nc2ccc(C)cc2)c(N)[nH]c(=O)c1C#N`, for which the TGI in the assay with 786-0 renal, with BT-549 breast and in the assay with OVCAR-4 ovarian was greater than 100 µM each time.
Take `CCOc1ccc(N=C/C=C(\Cl)c2ccc3ccccc3c2)cc1`: the TGI in the assay with HOP-92 NSCLC was 33.3 µM; in the assay with 786-0 renal it was 26.7 µM; with BT-549 breast, 40.4 µM; in the assay on OVCAR-4 ovarian, 26.3 µM.
For `O=C1C(Br)=Cc2c(Cl)sc(Cl)c21`, in that order: 7 µM, 5.09 µM, 88.4 µM and 8.81 µM.
As to `O=c1nc2c(c(-c3cccc(Cl)c3)[nH]1)COC/C2=C\c1cccc(Cl)c1`, the TGI in the assay on HOP-92 NSCLC, with 786-0 renal, in the assay with BT-549 breast and in the assay on OVCAR-4 ovarian was greater than 100 µM throughout.
Take `O=C1NC(=S)NC(=O)C1C(c1ccccc1[N+](=O)[O-])C1C(=O)NC(=S)NC1=O`: the TGI in the assay on HOP-92 NSCLC, in the assay on 786-0 renal, in the assay on BT-549 breast and in the assay with OVCAR-4 ovarian was greater than 100 µM throughout.
Turning to `CC(C)c1c(P(=O)(c2ccccc2)c2ccccc2)n(C)c2ccccc12`, the TGI in the assay with HOP-92 NSCLC, in the assay with 786-0 renal, with BT-549 breast and in the assay with OVCAR-4 ovarian was greater than 100 µM each time.
The compound `CC1=C2c3ccccc3N(C(=O)/C=C/C(=O)O)[C@H]2[C@H]2C(=O)OC(=O)[C@H]2C1` yielded a TGI in the assay with OVCAR-4 ovarian greater than 10 µM.
Turning to `C=CC/C(C(=O)OC)=C(/C(=O)OC)N(CCC)CCC`, the TGI in the assay on HOP-92 NSCLC, in the assay on 786-0 renal, in the assay on BT-549 breast and with OVCAR-4 ovarian was greater than 100 µM in each case.
For the compound `N#CSCc1cccc(Nc2cc(=O)[nH]c(=O)[nH]2)c1`, the TGI was 85.7 µM with HOP-92 NSCLC, greater than 100 µM in the assay with 786-0 renal, greater than 100 µM in the assay on BT-549 breast and greater than 100 µM in the assay with OVCAR-4 ovarian.
For the compound `CO/N=C1/c2sccc2[C@H](NC(=O)CNC(=O)OC(C)(C)C)[C@@H]1O`, the TGI in the assay on HOP-92 NSCLC, in the assay on BT-549 breast and in the assay on OVCAR-4 ovarian was greater than 100 µM throughout.
For the compound `COc1cc2c(cc1OC)C(=O)/C(=C/c1cc(C)c(O)c(C)c1)C2`, the TGI in the assay on HOP-92 NSCLC, in the assay on BT-549 breast and in the assay with OVCAR-4 ovarian was greater than 100 µM throughout.
Consider `O=C1OC[C@@H]2Cc3c([nH]c4ccccc34)[C@@H](c3ccc(O)cc3)N12`, for which the TGI in the assay with HOP-92 NSCLC was greater than 100 µM; in the assay with 786-0 renal, greater than 100 µM; in the assay with OVCAR-4 ovarian, greater than 86.4 µM.
For `Cc1nc2ccc([N+](=O)[O-])cc2c(=O)n1C(=S)Nc1cccc(Cl)c1`, the TGI was 25.6 µM in the assay with HOP-92 NSCLC, 78 µM in the assay with 786-0 renal and greater than 100 µM with OVCAR-4 ovarian.
`N#Cc1c(OCCF)c2ccccc2n2c1nc1ccccc12` returned a TGI in the assay with OVCAR-4 ovarian of 92 µM.
With `CC(C)CCNC(=O)c1ccc(CNC(=O)/C=C/c2ccc(OCc3ccccc3)cc2)cc1`, the TGI in the assay on HOP-92 NSCLC, in the assay with 786-0 renal and in the assay with OVCAR-4 ovarian was greater than 100 µM in each case.
Regarding `Cc1nc(Cl)c(CBr)c(Cl)n1`, the figures for the TGI with 786-0 renal, in the assay on BT-549 breast and in the assay on OVCAR-4 ovarian were 1 µM, 0.747 µM and 3.56 µM, respectively.
For the compound `CC(C)(CO)N1C(=O)c2ccccc2C1(O)c1ccc(Cl)cc1` (stereo not drawn), the TGI in the assay on 786-0 renal, in the assay on BT-549 breast and in the assay on OVCAR-4 ovarian was greater than 100 µM each time.
